{"source": "paper PMC6367362", "about": "“MD001, a Novel Peroxisome Proliferator-activated Receptor α/γ Agonist, Improves Glucose and Lipid Metabolism” (Scientific Reports, 2019)", "target": "T1, human HA-PPARα (Homo sapiens, UniProt Q07869)", "T1 construct": "expressed in transfected cells; host or cells: HEK293", "T1 sequence (Q07869 1-468)": "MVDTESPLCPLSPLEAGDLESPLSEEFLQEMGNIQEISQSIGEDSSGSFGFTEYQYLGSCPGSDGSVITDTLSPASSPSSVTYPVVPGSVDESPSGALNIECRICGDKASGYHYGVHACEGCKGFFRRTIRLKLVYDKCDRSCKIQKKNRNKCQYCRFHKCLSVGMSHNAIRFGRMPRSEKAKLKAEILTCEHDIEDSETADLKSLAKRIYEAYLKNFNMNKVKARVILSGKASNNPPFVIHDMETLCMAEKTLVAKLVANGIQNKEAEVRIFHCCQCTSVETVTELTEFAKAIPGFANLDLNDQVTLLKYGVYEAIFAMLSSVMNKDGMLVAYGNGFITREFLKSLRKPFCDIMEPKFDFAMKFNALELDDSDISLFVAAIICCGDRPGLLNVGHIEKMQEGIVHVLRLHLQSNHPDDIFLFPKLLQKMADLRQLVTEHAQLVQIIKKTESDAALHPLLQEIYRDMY", "assay": "PPRE luciferase activity assay in HEK293 cells transfected with HA-PPARα", "type": "cell-based", "parameters": "transcriptional activity of PPARα: dose or concentration left out as unconfirmed", "details": "HEK293, PPRE-pk-Luc", "description": "Figure 2 MD001 induces the expression of target genes through PPARα and PPARγ activation. HEK293 cells were transiently co-transfected with human HA-PPARα (A) and HA-PPARγ (B) expression vectors along with the reporter plasmid (PPRE-pk-Luc) or control reporter plasmid (pk-Luc) with Renilla vector for 24 h. Cells were treated with MD001 (10 μM), rosiglitazone (rosi) (10 μM) or WY14643 (WY) (10 μM) for 24 h. Luciferase activity was normalised to Renilla luciferase activity as described in the Methods section. **, vs. vehicle. (C) HepG2 cells were treated with MD001 (10 μM) for 24 h, and total RNA was isolated and synthesised into cDNA. Relative expression was quantitated using qRT-PCR. **, vs. vehicle. (D,E) HepG2 cells were transfected with control siRNA, PPARα siRNA (D), or PPARγ siRNA (E) for 48 h and treated with vehicle, WY14643 (10 μM), rosiglitazone (10 μM) or MD001 (10 μM) for 24 h. Subsequently, cells were harvested for total RNA isolation. Relative expression of target genes was quantitated using qRT-PCR. ^#, vs. control siRNA; ^‡, vs. control siRNA/vehicle; ^§, vs. control siRNA/WY; * and **, vs. control siRNA/MD001. Data represent the mean ± SD of three independent experiments. *P < 0.05, **P < 0.01, ^#P < 0.01, ^‡P < 0.01, and ^§P < 0.01.\nFor transient transfection, cells were transfected with plasmid DNA constructs by polyethylenimine (PEI, Polysciences, Inc., Warrington, PA, USA) according to the manufacturer’s instructions. Transcription activity assays of PPARα and PPARγ in HEK293 cells were performed by co-transfection of HA-PPARα, HA-PPARγ, and peroxisome proliferator-response element (PPRE) reporter plasmid (PPRE-pk-Luc) or control reporter plasmid (pk-Luc) with Renilla vector for 24 h. […] Luciferase activity was measured with the Dual-Luciferase Reporter Assay System (Promega, Madison, WI, USA) and quantified using GloMax (Promega, USA) according to the manufacturer’s protocol. […]\nLuciferase activity was measured as described in the Methods section. […]"}
{"smiles": "Cc1c(O)cc(O)c2c(-c3ccccc3)c(C(=O)/C=C/c3ccccc3)c(=O)oc12", "note": "[MD001]", "values": [{"measurement": "transcription via PPARα activation (luciferase activity)", "setting": "10 μM, 24 h, vs. vehicle", "value": "significantly increased"}, {"measurement": "transcriptional activity of PPARα", "setting": "24 h (Supplementary Fig. S2)", "value": "promoted simultaneous transcriptional activity"}]}
